Laboratory results from PMC7310518 (Nature chemical biology, 2017).
Where two headings read alike, the source gives them in different places. Values belong to the compound of their own block, whether it stands above or below them.

Tests used:
[1] = biological target: T1, AaBioW (pimeloyl-CoA synthetase BioW) (Aquifex aeolicus, UniProt O67575); experiment: co-crystal structure with CoA; type: binding
[2] = biological target: T1, AaBioW (pimeloyl-CoA synthetase BioW); experiment: ITC; type: binding
[3] = biological target: T1, AaBioW (pimeloyl-CoA synthetase BioW); experiment: ITC; type: binding; remark: listed apart in the source
[4] = biological target: T1, AaBioW (pimeloyl-CoA synthetase BioW); experiment: TLC proofreading assay; type: biochemical
[5] = biological target: T1, AaBioW (pimeloyl-CoA synthetase BioW); experiment: TLC adenylation/proofreading assay; type: biochemical

T1 sequence (O67575 whole entry): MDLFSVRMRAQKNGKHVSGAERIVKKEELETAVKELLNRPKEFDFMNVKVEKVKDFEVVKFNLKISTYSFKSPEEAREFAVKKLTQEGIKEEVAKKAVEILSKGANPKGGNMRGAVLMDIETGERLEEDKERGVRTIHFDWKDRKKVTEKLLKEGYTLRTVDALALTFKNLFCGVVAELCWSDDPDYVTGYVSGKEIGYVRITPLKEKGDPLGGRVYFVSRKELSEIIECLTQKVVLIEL

co-crystal structure with CoA (2.25 Å) [1]: AaBioW with CoA–AMP (5TVA)
SMILES: Nc1ncnc2c1ncn2[C@@H]1O[C@H](COP(=O)(O)O)[C@@H](O)[C@H]1O [AMP]

SMILES: Nc1ncnc2c1ncn2[C@@H]1O[C@H](COP(=O)(O)OP(=O)(O)OP(=O)(O)O)[C@@H](O)[C@H]1O [ATP]
Kd [2]: 13 ± 3 µM

Kd [3]: 14 ± 2.5 µM
SMILES: CC(C)(COP(=O)(O)OP(=O)(O)OC[C@H]1O[C@@H](n2cnc3c(N)ncnc32)[C@H](O)[C@@H]1OP(=O)(O)O)[C@@H](O)C(=O)NCCC(=O)NCCS [CoA]

SMILES: O=C(O)CCCC(=O)O [compound 3, glutarate]
TLC proofreading assay (AMP accumulation) [4]: reactions carried out using glutarate in the absence of CoA resulted only in the accumulation of AMP

SMILES: O=C(O)CCCCC(=O)O [compound 4, adipate]
TLC adenylation/proofreading assay [5]: adenylated intermediates can be observed for the cognate C7, as well as for the noncognate C6 and C8 substrates

SMILES: O=C(O)CCCCCCC(=O)O [compound 5, suberate]
TLC adenylation/proofreading assay [5]: adenylated intermediates can be observed for the cognate C7, as well as for the noncognate C6 and C8 substrates
